# Results: patent publication US20260274829A1, “NEW E3 UBIQUITIN LIGASE LIGAND, PROTEIN DEGRADATION AGENT AND USE THEREOF” (GLUETACS THERAPEUTICS (SHANGHAI) CO., LTD., priority 2023, published 2026)
# pIC50: −log10 of the molar value.
# Target: T1, human Cereblon WT GST-tagged protein (Homo sapiens, UniProt Q96SW2)
# T1 construct: purchased CISBIO 64BDCRBNPEH
# Experiment: CRBN binding, HTRF CEREBLON BINDING kit
# Conditions: CRBN binding, HTRF CEREBLON BINDING kit
# Procedure, shortened: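 HTRF competition in which test compounds displace a Thalidomide-Re tracer from GST-tagged human Cereblon WT, detected with a GST Eu antibody. Incubation lasted 3 hours at room temperature, with emission read at 620 and 665 nm. Inhibition rate was derived from 665/620 ratios relative to blank and solvent control wells.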
# T1 sequence (Q96SW2 whole entry): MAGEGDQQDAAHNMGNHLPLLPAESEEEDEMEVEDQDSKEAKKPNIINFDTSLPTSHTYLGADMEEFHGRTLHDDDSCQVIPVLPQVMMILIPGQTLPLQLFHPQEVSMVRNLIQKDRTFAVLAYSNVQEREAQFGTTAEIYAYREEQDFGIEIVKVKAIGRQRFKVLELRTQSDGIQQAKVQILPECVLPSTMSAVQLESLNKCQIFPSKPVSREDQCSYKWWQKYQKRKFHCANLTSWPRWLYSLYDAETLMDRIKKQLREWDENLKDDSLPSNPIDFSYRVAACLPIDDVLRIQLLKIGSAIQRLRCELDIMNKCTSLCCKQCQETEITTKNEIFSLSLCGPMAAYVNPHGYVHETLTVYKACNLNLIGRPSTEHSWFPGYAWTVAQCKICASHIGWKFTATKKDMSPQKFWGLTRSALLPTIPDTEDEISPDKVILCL
row,Structure (SMILES),pIC50
1,"Cc1ccc(-c2c(C)noc2C)cc1N(CC1CCN(Cc2ccc(N3CCC(=O)NC3=O)cn2)CC1)c1ccc(C2(C#N)CC2)cc1 [GT-06411, 1-(4-((5-(3,5-dimethylisoxazol-4-yl)-2-methylphenyl)((1-((5-(2,4-dioxotetrahydropyrimidin-1(2H)-yl)pyridin-2-yl)methyl)piperidin-4-yl)methyl)amino)phenyl)cyclopropane-1-carbonitrile]",6.00 to 6.30
2,"Cc1cc(Nc2ncc(Cl)c(Nc3ccccc3S(=O)(=O)C(C)C)n2)c(OC(C)C)cc1C1CCN(Cc2ccc(C3CCC(=O)NC3=O)cc2)CC1 (centres unmarked) [GT-07364, 3-(4-((4-(4-((5-chloro-4-((2-(isopropylsulfonyl)phenyl)amino)pyrimidin-2-yl)amino)-5-isopropoxy-2-methylphenyl)piperidin-1-yl)methyl)phenyl)piperidine-2,6-dione]",6.00 to 6.30
3,"Cc1nc2c(F)cc(-c3nc(Nc4ccc(N5CCC(N6CCN(Cc7ccc(N8CCC(=O)NC8=O)cc7)CC6)CC5)cn4)ncc3F)cc2n1C(C)C [GT-06739, 1-(4-((4-(1-(6-((5-fluoro-4-(4-fluoro-1-isopropyl-2-methyl-1H-benzo[d]imidazol-6-yl)pyrimidin-2-yl)amino)pyridin-3-yl)piperidin-4-yl)piperazin-1-yl)methyl)phenyl)dihydropyrimidine-2,4(1H,3H)-dione]",6.00 to 6.30
4,"CCc1cc2c(cc1N1CCN(Cc3ccc(N4CCC(=O)NC4=O)cc3)CC1)C(C)(C)c1[nH]c3cc(C#N)ccc3c1C2=O [GT-07324, 8-(4-(4-(2,4-dioxotetrahydropyrimidin-1(2H)-yl)benzyl)piperazin-1-yl)-9-ethyl-6,6-dimethyl-11-oxo-6,11-dihydro-5H-benzo[b]carbazole-3-carbonitrile]",5.72 to 6.00
5,"COc1cc2nn(C3CCN(Cc4ccc(N5CCC(=O)NC5=O)cc4F)CC3)cc2cc1NC(=O)c1cccc(C(F)(F)F)c1 [GT-04753, N-(2-(1-(4-(2,4-dioxotetrahydropyrimidin-1(2H)-yl)-2-fluorobenzyl)piperidin-4-yl)-6-methoxy-2H-indazol-5-yl)-3-(trifluoromethyl)benzamide]",5.72 to 6.00
6,"Nc1nnc(-c2cc(F)ccc2O)cc1N1CCN(Cc2ccc(C3CCC(=O)NC3=O)cc2)CC1 (centres unmarked) [GT-05062, 3-(4-((4-(3-amino-6-(5-fluoro-2-hydroxyphenyl)pyridazin-4-yl)piperazin-1-yl)methyl)phenyl)piperidine-2,6-dione]",6.00 to 6.30
7,"O=C1CCN(c2ccc(CN3CCC(n4cc(NC(=O)c5cnn6ccc(N7C[C@H]8C[C@@H]7CO8)nc56)c(C(F)F)n4)CC3)nc2)C(=O)N1 [GT-05053, 5-((1R,4R)-2-oxa-5-azabicyclo[2.2.1]heptan-5-yl)-N-(3-(difluoromethyl)-1-(1-((5-(2,4-dioxotetrahydropyrimidin-1(2H)-yl)pyridin-2-yl)methyl)piperidin-4-yl)-1H-pyrazol-4-yl)pyrazolo[1,5-a]pyrimidine-3-carboxamide]",6.00 to 6.30
8,"Cc1cc(Nc2ncc(Cl)c(Nc3ccccc3S(=O)(=O)C(C)C)n2)c(OC(C)C)cc1C1CCN(Cc2cc(C3CCC(=O)NC3=O)cnc2F)CC1 (centres unmarked) [GT-07598, 3-(5-((4-(4-((5-chloro-4-((2-(isopropylsulfonyl)phenyl)amino)pyrimidin-2-yl)amino)-5-isopropoxy-2-methylphenyl)piperidin-1-yl)methyl)-6-fluoropyridin-3-yl)piperidine-2,6-dione]",6.00 to 6.30
9,"NC(=O)c1ncc(N2CCCCC2)nc1Nc1ccc(C2CCN(Cc3ccc(C4CCC(=O)NC4=O)cc3)CC2)cc1 (centres unmarked) [GT-04785, 3-((4-(1-(4-(2,6-dioxopiperidin-3-yl)benzyl)piperidin-4-yl)phenyl)amino)-5-(piperidin-1-yl)pyrazine-2-carboxamide]",6.00 to 6.30
10,"O=C1CCC(c2cnc(F)c(CN3C[C@H]4C[C@@H]3CN4c3ccc(-c4cc(F)c5c(c4)C(=O)N(C(C(=O)Nc4nccs4)c4ncn6c4CCC6)C5)cc3)c2)C(=O)N1 (stereo partly drawn) [GT-07562, 2-(6,7-dihydro-5H-pyrrolo[1,2-c]imidazol-1-yl)-2-(6-(4-((1R,4R)-5-((5-(2,6-dioxopiperidin-3-yl)-2-fluoropyridin-3-yl)methyl)-2,5-diazabicyclo[2.2.1]heptan-2-yl)phenyl)-4-fluoro-1-oxoisoindolin-2-yl)-N-(thiazol-2-yl)acetamide]",> 6.30
11,"CN1CCN([C@@H]2CCCN(c3cnc(C(N)=O)c(Nc4ccc(C5CCN(Cc6ccc(C7CCC(=O)NC7=O)c(F)c6)CC5)cc4)n3)C2)C1=O (stereo partly drawn) [GT-04799, 3-((4-(1-(4-(2,6-dioxopiperidin-3-yl)-3-fluorobenzyl)piperidin-4-yl)phenyl)amino)-5-((R)-3-(3-methyl-2-oxoimidazolidin-1-yl)piperidin-1-yl)pyrazine-2-carboxamide]",> 6.30

# The remaining lines, values ahead:
row,pIC50,Structure (SMILES)
1,6.00 to 6.30,"O=C1CCN(c2ccc(CN3C[C@H]4C[C@@H]3CN4c3ccc(-c4cc(F)c5c(c4)C(=O)N(C(C(=O)Nc4nccs4)c4ncn6c4CCC6)C5)cc3)nc2)C(=O)N1 (stereo partly drawn) [GT-06190, 2-(6,7-dihydro-5H-pyrrolo[1,2-c]imidazol-1-yl)-2-(6-(4-((1R,4R)-5-((5-(2,4-dioxotetrahydropyrimidin-1(2H)-yl)pyridin-2-yl)methyl)-2,5-diazabicyclo[2.2.1]heptan-2-yl)phenyl)-4-fluoro-1-oxoisoindolin-2-yl)-N-(thiazol-2-yl)acetamide]"
2,6.00 to 6.30,"CN(C)C(=O)c1cc2cnc(Nc3ccc(N4CCN(Cc5ccc(N6CCC(=O)NC6=O)cc5)CC4)cn3)nc2n1C1CCCC1 [GT-06340, 7-cyclopentyl-2-((5-(4-(4-(2,4-dioxotetrahydropyrimidin-1(2H)-yl)benzyl)piperazin-1-yl)pyridin-2-yl)amino)-N,N-dimethyl-7H-pyrrolo[2,3-d]pyrimidine-6-carboxamide]"
3,5.72 to 6.00,"CN(Cc1ccc(N2CCC(=O)NC2=O)nc1)C1CCN(c2ccc(-c3cc(F)c4c(c3)C(=O)N(C(C(=O)Nc3nccs3)c3ncn5c3CCC5)C4)cc2)CC1 (centres unmarked) [GT-05283, 2-(6,7-dihydro-5H-pyrrolo[1,2-c]imidazol-1-yl)-2-(6-(4-(4-(((6-(2,4-dioxotetrahydropyrimidin-1(2H)-yl)pyridin-3-yl)methyl)(methyl)amino)piperidin-1-yl)phenyl)-4-fluoro-1-oxoisoindolin-2-yl)-N-(thiazol-2-yl)acetamide]"
4,5.72 to 6.00,"Cc1ccc(-c2c(C)noc2C)cc1N(CC1CCN(Cc2ccc(N3CCC(=O)NC3=O)c(F)c2)CC1)c1ccc(C2(C#N)CC2)cc1 [GT-04843, 1-(4-((5-(3,5-dimethylisoxazol-4-yl)-2-methylphenyl)((1-(4-(2,4-dioxotetrahydropyrimidin-1(2H)-yl)-3-fluorobenzyl)piperidin-4-yl)methyl)amino)phenyl)cyclopropane-1-carbonitrile]"
5,6.00 to 6.30,"O=C1CCN(c2ccc(CN3CCC(n4cc(NC(=O)c5cnn6ccc(N7C[C@H]8C[C@@H]7CO8)nc56)c(C(F)F)n4)CC3)cc2)C(=O)N1 [GT-05029, 5-((1R,4R)-2-oxa-5-azabicyclo[2.2.1]heptan-5-yl)-N-(3-(difluoromethyl)-1-(1-(4-(2,4-dioxotetrahydropyrimidin-1(2H)-yl)benzyl)piperidin-4-yl)-1H-pyrazol-4-yl)pyrazolo[1,5-a]pyrimidine-3-carboxamide]"
6,5.72 to 6.00,"COc1cc2nn(C3CCN(Cc4ccc(N5CCC(=O)NC5=O)c(F)c4)CC3)cc2cc1NC(=O)c1cccc(C(F)(F)F)n1 [GT-04775, N-(2-(1-(4-(2,4-dioxotetrahydropyrimidin-1(2H)-yl)-3-fluorobenzyl)piperidin-4-yl)-6-methoxy-2H-indazol-5-yl)-6-(trifluoromethyl)picolinamide]"
7,> 6.30,"O=C1CCN(c2cccc(CN3CCN(C4CCN(c5ccc(-c6cc(F)c7c(c6)C(=O)N(C(C(=O)Nc6nccs6)c6ncn8c6CCC8)C7)cc5)CC4)CC3)c2)C(=O)N1 (centres unmarked) [GT-06245, 2-(6,7-dihydro-5H-pyrrolo[1,2-c]imidazol-1-yl)-2-(6-(4-(4-(4-(3-(2,4-dioxotetrahydropyrimidin-1(2H)-yl)benzyl)piperazin-1-yl)piperidin-1-yl)phenyl)-4-fluoro-1-oxoisoindolin-2-yl)-N-(thiazol-2-yl)acetamide]"
8,5.72 to 6.00,"COc1cc(N2CCC(N3CCN(Cc4cncc(C5CCC(=O)NC5=O)c4)CC3)CC2)ccc1Nc1ncc(Cl)c(Nc2ccccc2P(C)(C)=O)n1 (centres unmarked) [GT-07614, 3-(5-((4-(1-(4-((5-chloro-4-((2-(dimethylphosphoryl)phenyl)amino)pyrimidin-2-yl)amino)-3-methoxyphenyl)piperidin-4-yl)piperazin-1-yl)methyl)pyridin-3-yl)piperidine-2,6-dione]"
9,5.72 to 6.00,"COC1CCN(c2nccc(Nc3cc4c(cn3)c(N3CCC(N(C)Cc5cccc(N6CCC(=O)NC6=O)c5)CC3)nn4C(C)C)n2)CC1 [GT-06122, 1-(3-(((1-(1-isopropyl-6-((2-(4-methoxypiperidin-1-yl)pyrimidin-4-yl)amino)-1H-pyrazolo[4,3-c]pyridin-3-yl)piperidin-4-yl)(methyl)amino)methyl)phenyl)dihydropyrimidine-2,4(1H,3H)-dione]"
10,> 6.30,"CN(Cc1ccc(C2CCC(=O)NC2=O)cn1)C1CCN(c2ccc(-c3cc(F)c4c(c3)C(=O)N(C(C(=O)Nc3nccs3)c3ncn5c3CCC5)C4)cc2)CC1 (centres unmarked) [GT-07385, 2-(6,7-dihydro-5H-pyrrolo[1,2-c]imidazol-1-yl)-2-(6-(4-(4-(((5-(2,6-dioxopiperidin-3-yl)pyridin-2-yl)methyl)(methyl)amino)piperidin-1-yl)phenyl)-4-fluoro-1-oxoisoindolin-2-yl)-N-(thiazol-2-yl)acetamide]"
11,< 5.00,"C#Cc1cccc(Nc2ncnc3cc(OCCOC)c(OCCOC)cc23)c1 [erlotinib, reference compound]"
12,> 6.30,"CN(Cc1cccc(NC2CCC(=O)NC2=O)c1)C1CCN(c2ccc(-c3cc(F)c4c(c3)C(=O)N(C(C(=O)Nc3nccs3)c3ncn5c3CCC5)C4)cc2)CC1 (centres unmarked) [GT-05284, 2-(6,7-dihydro-5H-pyrrolo[1,2-c]imidazol-1-yl)-2-(6-(4-(4-((3-((2,6-dioxopiperidin-3-yl)amino)benzyl)(methyl)amino)piperidin-1-yl)phenyl)-4-fluoro-1-oxoisoindolin-2-yl)-N-(thiazol-2-yl)acetamide]"
